# Source: patent publication US20250154607A1, “ISOTHERMAL AMPLIFICATION OF PATHOGENS” (priority 2021, published 2025)
# Tests used:
# [1] = target: T1, 9° Nm™ DNA polymerase (Thermococcus sp., UniProt Q56366, E143D); assay: APA amplification of Neisseria gonorrhea DNA with SDS, with or without HPβCD; type: biochemical; conditions: no protective agent (absence of βCD); 500 copies N. gonorrhea genomic DNA; APA at 68° C.
# Description: This example provides SDS complexation analyses of the methods and compositions provided herein. […] Anionic detergent SDS at >0.01% is inhibitory to APA amplification of DNA, but the presence of the protective agent hydroxypropyl β-CD (βCD) allowed amplification to proceed despite≤0.2% SDS. The kinetics of hydroxypropyl β-CD sequestration of SDS were thus sufficiently rapid at a molar ratio of 2:1 (˜14 mM: −7 mM) to prevent 9° Nm™ DNA polymerase inactivation by SDS.
# Standard APA reactions with or without 4% Sigma 389145 HPβCD containing “hot-start” CleanAmp™ deoxynucleotides (CAdNTP) and a sequence-specific molecular beacon detection probe were performed with lyophilized ((supplemented with dextran 40, Trehalose), FIG. 2B) or “wet” (no HPβCD, FIG. 2A) reagents including Tris pH 8.4, KCl, MgSO4, and (NH4)2SO4 Triton X-100, 9° Nm™ DNA polymerase, CAdNTP, primers and probe. For the lyophilized reactions, samples were prepared in 50 μl solution containing MgSO4, and (NH4)2SO4 with (shapes) or without (dashed) 500 copies of N. gonorrhea genomic DNA. After dried reagents were dissolved with the samples, various amounts of SDS were added, as indicated, and solutions were vortexed. For the wet reactions, 45 μl master mix containing all reaction components was added to 5 μl sample containing 1OX SDS (final concentration as indicated), with and without 500 copies of N. gonorrhea genomic DNA. Activation of CAdNTP by 2 minutes 90° C. was followed by APA at 68° C. for 10 minutes with detection of the NG amplification product by fluorescence collected every 15 seconds.
# [2] = tested on: Chlamydia trachomatis elementary bodies; assay: Lysis of Chlamydia trachomatis elementary bodies, read out by APA; conditions: lysis buffer 0.4% SDS, pH 2.2, 2 minutes at 78° C.; compared with heat lysis 5 minutes at 95° C.
# Description: Elementary body lysis (˜40/reaction) was probed in this example using an APA-based assay. Elementary bodies (Acrometrix) were added to either cold chlamydia transport media (SPD containing sucrose, phosphate buffer, and glutamic acid), TE (Tris-EDTA 10-1), or lysis buffer containing 0.4% SDS, pH 2.2. The samples in TE or SDS were heated 5 minutes at 95° C. (heat lysis) or 2 minutes at 78° C. (SDS lysis), respectively. Then 5 μl (containing 40 elementary bodies) was added to “wet” APA reaction mix as above (pH 7.6 to facilitate isothermal CAdNTP activation) containing 4% cyclodextrin HP-βCD for isothermal APA (68° C.) with fluorescence from a chlamydia-specific molecular beacon collected every 15 seconds.
# [3] = target: T1, 9° Nm™ DNA polymerase; assay: Order-of-addition assay (APA of S. enterica DNA, SDS and hydroxypropyl β-CD); type: biochemical
# Description: Order-of-addition assay: Detection time dependent on cyclodextrin addition prior to brief interaction of enzymes with SDS. Since SDS rapidly and irreversibly inactivated 9° Nm™ DNA polymerase, when the enzyme is instead simultaneously exposed to SDS and β-CD, the kinetics of complexation of the latter two substances must be very rapid, compared with the rate of interaction between SDS and the enzyme.
# FIG. 6 depicts data related to detection of S. enterica DNA target (50,000 copies) by APA reactions in a wet “hot-start” format mediated by CleanAmp™ deoxynucleotides (CAdNTP) containing Tris pH7.6, KCl, (NH4)2SO4, MgSO4, Triton X-100, SYBRI, CAdNTP, 9° Nm™ DNA polymerase, with additions of 0.4% SDS (X), 4% hydroxypropyl β-CD (squares), SDS then immediately β-CD (circles), or β-CD then SDS (solid line) with mixing. Control (ctrl dotted line) was no additions. All samples included DNA target. Isothermal APA was at 68° C., collecting intercalating dye fluorescence every 15 seconds to monitor all exponential DNA amplification. […] Negative controls for each condition without S. enterica DNA confirmed specificity of indicated amplification products (not shown).
# [4] = target: T2, RNase A (Bos taurus, UniProt P61823); assay: Requirements for irreversible RNase inactivation (influenza B RNA APA in presence of RNase A); type: biochemical; conditions: 500 ng RNase A (10 μg/ml); additions 0.2% SDS, 10 mM DTT, 0.1% Triton X-100 as labelled; 2 minutes at 58° C.; then 4% βCD
# T2 sequence (P61823 27-150): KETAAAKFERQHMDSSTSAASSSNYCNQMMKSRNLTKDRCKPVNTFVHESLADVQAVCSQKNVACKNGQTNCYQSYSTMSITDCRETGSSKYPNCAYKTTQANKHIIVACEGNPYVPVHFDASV
# [5] = tested on: nasal swab ribonucleases; assay: Protection of RNA from nasal swab ribonucleases (influenza B RNA APA); type: biochemical, human
# [6] = tested on: nasal ribonuclease; assay: Rapid irreversibility of nasal ribonuclease inactivation (RNase alert assay); type: biochemical; conditions: 0.2% SDS with or without 40 mM cysteine, 60° C.; immediately diluted into 4% β-cyclodextrin
# Description: FIG. 13 depicts data related to the rapid irreversibility of nasal ribonuclease inactivation. 5 μl concentrated nasal swab eluate in TE, an amount equivalent to 2% on a typical nasal swab, was mixed with 45 μl of either lysis buffer containing 0.2% SDS (RBS, solid line), RBS containing 40 mM cysteine (squares), or water (dotted line) all preheated to 60° C. 5 μl was immediately diluted into 45 μl 4% β-cyclodextrin to sequester detergent. The recovered RNase activity was determined with an RNase alert assay; as control for the assay, an equivalent amount of nasal swab eluate was directly added without prior treatment (X). […] Unexpectedly, the effectively irreversible inactivation of ribonucleases thus observed during the practice of this invention was virtually instantaneous (monitored by directly testing ribonuclease activity), unlike prior art methods based upon heat. Also shown in this example is that the inactivation properties described for RNase A are also attributable to ribonucleases naturally occurring in nasal exudates.
# [7] = target: Taq polymerase (Thermus aquaticus, UniProt P19821); conditions: cited from earlier work
# Taq polymerase, sequence (P19821 whole entry): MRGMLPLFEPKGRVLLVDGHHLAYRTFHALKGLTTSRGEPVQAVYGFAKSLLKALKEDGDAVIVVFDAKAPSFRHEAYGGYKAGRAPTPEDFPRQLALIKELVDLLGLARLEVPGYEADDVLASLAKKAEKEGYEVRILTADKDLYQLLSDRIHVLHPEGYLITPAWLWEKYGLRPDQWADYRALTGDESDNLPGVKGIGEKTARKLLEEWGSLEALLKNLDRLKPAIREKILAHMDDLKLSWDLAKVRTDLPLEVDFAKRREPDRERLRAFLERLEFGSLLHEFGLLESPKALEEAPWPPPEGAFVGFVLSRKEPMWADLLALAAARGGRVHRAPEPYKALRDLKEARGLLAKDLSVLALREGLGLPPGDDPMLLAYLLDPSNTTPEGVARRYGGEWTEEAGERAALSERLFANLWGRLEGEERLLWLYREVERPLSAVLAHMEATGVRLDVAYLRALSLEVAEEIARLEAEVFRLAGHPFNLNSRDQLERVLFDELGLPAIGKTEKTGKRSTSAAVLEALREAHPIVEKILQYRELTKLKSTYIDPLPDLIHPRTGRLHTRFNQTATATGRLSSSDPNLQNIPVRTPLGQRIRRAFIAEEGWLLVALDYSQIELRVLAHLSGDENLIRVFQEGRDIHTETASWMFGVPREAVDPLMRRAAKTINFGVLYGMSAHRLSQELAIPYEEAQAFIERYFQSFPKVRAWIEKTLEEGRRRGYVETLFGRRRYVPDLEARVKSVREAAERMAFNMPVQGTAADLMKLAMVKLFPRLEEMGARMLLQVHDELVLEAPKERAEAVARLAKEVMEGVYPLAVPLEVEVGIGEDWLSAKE
# T1 sequence (Q56366 whole entry E143D): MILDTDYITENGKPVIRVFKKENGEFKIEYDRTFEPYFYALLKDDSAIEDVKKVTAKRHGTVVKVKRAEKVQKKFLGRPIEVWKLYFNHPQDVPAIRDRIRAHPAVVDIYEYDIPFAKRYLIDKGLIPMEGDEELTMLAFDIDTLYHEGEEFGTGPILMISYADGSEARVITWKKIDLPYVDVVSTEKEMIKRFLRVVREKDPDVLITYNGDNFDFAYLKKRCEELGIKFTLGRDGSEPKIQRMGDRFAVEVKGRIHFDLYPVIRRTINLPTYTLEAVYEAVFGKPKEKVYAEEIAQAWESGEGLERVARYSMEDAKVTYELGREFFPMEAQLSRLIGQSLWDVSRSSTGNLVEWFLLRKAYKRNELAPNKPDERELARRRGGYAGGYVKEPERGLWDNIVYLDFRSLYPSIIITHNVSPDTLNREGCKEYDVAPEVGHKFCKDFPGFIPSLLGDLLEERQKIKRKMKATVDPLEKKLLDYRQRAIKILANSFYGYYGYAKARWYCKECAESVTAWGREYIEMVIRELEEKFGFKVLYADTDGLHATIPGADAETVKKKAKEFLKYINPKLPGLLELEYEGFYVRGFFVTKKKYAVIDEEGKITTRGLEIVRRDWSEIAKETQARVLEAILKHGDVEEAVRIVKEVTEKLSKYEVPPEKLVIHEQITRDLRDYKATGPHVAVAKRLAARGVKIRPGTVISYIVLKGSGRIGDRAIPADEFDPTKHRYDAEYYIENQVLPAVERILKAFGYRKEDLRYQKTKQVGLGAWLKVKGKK
smiles,measurement,setting,value
"CCCCCCCCCCCCOS(=O)(=O)[O-].[Na+] [SDS, sodium dodecyl sulfate]",SDS concentration inhibitory to APA amplification of DNA,[1],> 0.01%
same,Liberation of target DNA from elementary bodies (lysis),[2],as effective in liberating target DNA as the heat lysis
same,Effect on APA amplification,"[3]; 0.4% SDS alone, S. enterica DNA 50,000 copies",Barrier to amplification
same,Effect on 9° Nm™ DNA polymerase,[3]; 0.4% SDS then immediately β-CD (brief exposure),sufficient to inactivate
same,Influenza B RNA detection by APA after RNase A pretreatment,[4],did not prevent significant restoration of RNase A activity
same,RNA detectability eliminated by recovered RNase activity (assay calibration),"[5]; 0.2% SDS without DTT, 2-minute incubation at 58° C.",> 95%
same,Influenza B RNA detection after nasal swab eluate pretreatment and SDS sequestration,"[5]; nasal swab eluate 4% of swab, 0.2% SDS with or without 10 mM DTT, 2 minutes at 58° C., then 4% βCD",no detection
same,Reversibility of nasal RNase inactivation after SDS sequestration,[6],virtually completely reversible
same,SDS concentration with inhibitory effect for PCR with Taq polymerase,[7],greater than 0.01 % (w/v)
